Measured values reported in PubChem BioAssay AID320 (DTP/NCI, 2004).
Values joined by “and” are separate entries in the source; they are usually repeats but may differ in a detail not shown here. Identical values can stand only once. Toxic doses and inconclusive results are not listed.

Tested on: BDF1 mice, P329 reticulum cell sarcoma ip, survival T/C
Assay: NCI In Vivo Anticancer Drug Screen. Data for tumor model P329 Reticulum Cell Sarcoma (intraperitoneal) in B6D2F1 (BDF1) mice
Settings: endpoint: median survival time, higher = longer survival
Experimental: The antitumor activity of compounds was measured in mice bearing transplantable tumors. Survival or tumor size were measured and the results are expressed as the measurement made in the treated group (T) divided by the measurement made in the vehicle treated control group (C). The tumor model used in this assay is P329 Reticulum Cell Sarcoma (intraperitoneal) in B6D2F1 (BDF1) mice

[1] = dose: 31.3 mg/kg/injection, schedule: Q01DX010 (ip), vehicle: saline
[2] = dose: 25.0 mg/kg/injection, schedule: Q01DX010 (ip), vehicle: saline
[3] = dose: 50.0 mg/kg/injection, schedule: Q01DX010 (ip), vehicle: saline
[4] = dose: 100.0 mg/kg/injection, schedule: Q01DX010 (ip), vehicle: saline
[5] = dose: 200.0 mg/kg/injection, schedule: Q01DX010 (ip), vehicle: saline
[6] = dose: 16.0 mg/kg/injection, schedule: Q01DX010 (ip), vehicle: saline
[7] = dose: 5.0 mg/kg/injection, schedule: Q01DX010 (ip), vehicle: saline
[8] = dose: 10.0 mg/kg/injection, schedule: Q01DX010 (ip), vehicle: saline
[9] = dose: 62.5 mg/kg/injection, schedule: Q01DX010 (ip), vehicle: saline
[10] = dose: 125.0 mg/kg/injection, schedule: Q01DX010 (ip), vehicle: saline

In the case of `O=P1(N(CCCl)CCCl)NCCCO1` (configuration not stated), the T/C (dose: 11.3 mg/kg/injection, schedule: Q01DX010 (ip), vehicle: saline) is reported as 106 % of control and 121 % of control and the T/C (dose: 22.5 mg/kg/injection, schedule: Q01DX010 (ip), vehicle: saline) is reported as 86 % of control.

`CCN(CCNc1ccc(C)c2sc3cc(Cl)ccc3c(=O)c12)CC(C)O` (configuration not stated) was tested, and the T/C [1] was 100 % of control and the T/C (dose: 250.0 mg/kg/injection, schedule: Q01DX010 (ip), vehicle: saline) was 92 % of control.

For `Nc1nc2n[nH]nc2c(=O)[nH]1`, the T/C (dose: 100.0 mg/kg/injection, schedule: Q01DX010 (ip), vehicle: alkali diluted with saline) was 153 % of control and the T/C (dose: 200.0 mg/kg/injection, schedule: Q01DX010 (ip), vehicle: alkali diluted with saline) was 150 % of control.

For `C#CCN(C)Cc1ccccc1`, the T/C [2] was 100 % of control, the T/C [3] was 100 % of control and the T/C [4] was 93 % of control. The T/C [5] was 106 % of control.

`C[C@]12C=CC(=O)C=C1CC[C@@H]1[C@@H]2C(=O)C[C@@]2(C)[C@H]1CC[C@]2(O)C(=O)CO` was tested, and the T/C (dose: 12.5 mg/kg/injection, schedule: Q01DX010 (sc), vehicle: steriod suspending solution) was 95 % of control and 104 % of control.

`Nc1nc(SCc2ccccc2)c2[nH]cnc2n1` was tested, and the T/C (dose: 8.0 mg/kg/injection, schedule: Q01DX010 (ip), vehicle: saline) was 100 % of control and 121 % of control, the T/C [6] was 114 % of control and 121 % of control and the T/C (dose: 32.0 mg/kg/injection, schedule: Q01DX010 (ip), vehicle: saline) was 117 % of control. The T/C (dose: 64.0 mg/kg/injection, schedule: Q01DX010 (ip), vehicle: saline) was 89 % of control.

For `Cc1cc(N(CCCl)CCCl)ccc1N=Nc1ccccc1C(=O)O`, the T/C [7] was 107 % of control and 114 % of control and the T/C [8] was 114 % of control.

In the case of `NC(Cc1ccc(N(CCCl)CCCl)cc1)C(=O)O` (configuration not stated), the T/C [7] is reported as 153 % of control and the T/C [8] is reported as 175 % of control.

With `CCCSc1ncnc2nc[nH]c12` the T/C [1] was 115 % of control and 123 % of control, the T/C [9] was 107 % of control and the T/C [10] was 107 % of control.

In the case of `N#CCSc1ncnc2nc[nH]c12`, the T/C (dose: 15.0 mg/kg/injection, schedule: Q01DX010 (ip), vehicle: saline) is reported as 150 % of control, the T/C (dose: 30.0 mg/kg/injection, schedule: Q01DX010 (ip), vehicle: saline) is reported as 115 % of control and the T/C (dose: 120.0 mg/kg/injection, schedule: Q01DX010 (ip), vehicle: saline) is reported as 173 % of control.

With `Nc1nc(N)c2nc(CNc3ccc(C(=O)NC(CCC(=O)O)C(=O)O)cc3)cnc2n1` (configuration not stated) the T/C (dose: 0.05 mg/kg/injection, schedule: Q01DX010 (ip), vehicle: other) was 111 % of control, the T/C (dose: 0.1 mg/kg/injection, schedule: Q01DX010 (ip), vehicle: other) was 107 % of control and the T/C (dose: 0.2 mg/kg/injection, schedule: Q01DX010 (ip), vehicle: other) was 123 % of control.

For `CS(=O)(=O)OCC(O)C(O)C(O)C(O)COS(C)(=O)=O` (configuration not stated), the T/C [2] was 100 % of control, the T/C [3] was 100 % of control and 103 % of control and the T/C [4] was 107 % of control. For the same molecule, the T/C [5] was 121 % of control and 123 % of control.

`COc1ccc2c(c1OC)C(=O)O[C@@H]2[C@H]1c2c(cc3c(c2OC)OCO3)CCN1C` was tested, and the T/C [9] was 92 % of control.

With `CCn1cnc2c(=S)nc[nH]c21` the T/C (dose: 15.6 mg/kg/injection, schedule: Q01DX010 (ip), vehicle: saline) was 111 % of control and 114 % of control, the T/C [1] was 114 % of control and 123 % of control and the T/C [10] was 89 % of control and 100 % of control.

With `CC/C(=C(/CC)c1ccc(O)cc1)c1ccc(O)cc1` the T/C (dose: 12.5 mg/kg/injection, schedule: Q01DX010 (ip), vehicle: saline) was 107 % of control, the T/C [2] was 96 % of control and 107 % of control and the T/C [3] was 100 % of control and 103 % of control. The T/C [4] was 88 % of control.

For `CS(=O)(=O)OCCC(=O)N1CCN(C(=O)CCOS(C)(=O)=O)CC1`, the T/C [2] was 117 % of control and the T/C [5] was 89 % of control.

In the case of `Oc1cc(CN(CCCl)CCCl)c(O)cc1CN(CCCl)CCCl`, the T/C (dose: 0.63 mg/kg/injection, schedule: Q01DX010 (ip), vehicle: saline) is reported as 103 % of control and 114 % of control, the T/C (dose: 1.25 mg/kg/injection, schedule: Q01DX010 (ip), vehicle: saline) is reported as 114 % of control and the T/C (dose: 2.5 mg/kg/injection, schedule: Q01DX010 (ip), vehicle: saline) is reported as 117 % of control. For the same molecule, the T/C [7] was 96 % of control and 107 % of control.

`S=P(N1CC1)(N1CC1)N1CC1` was tested, and the T/C (dose: 0.75 mg/kg/injection, schedule: Q01DX010 (ip), vehicle: saline) was 103 % of control and 107 % of control, the T/C (dose: 1.5 mg/kg/injection, schedule: Q01DX010 (ip), vehicle: saline) was 111 % of control and the T/C (dose: 6.0 mg/kg/injection, schedule: Q01DX010 (ip), vehicle: saline) was 115 % of control and 123 % of control.

For `Nc1nc(=S)c2ncn(C3OC(CO)C(O)C3O)c2[nH]1` (configuration not stated), the T/C (dose: 4.0 mg/kg/injection, schedule: Q01DX010 (ip), vehicle: saline) was 110 % of control and the T/C [6] was 90 % of control.

With `O=c1cnn(C2OC(CO)C(O)C2O)c(=O)[nH]1` (configuration not stated) the T/C [5] was 116 % of control.
